The source made the active and inactive calls. The rule behind the calls is not given here.
System: SK-MEL-2
Experiment: Growth inhibition of human SK-MEL-2 cells
Assay type: functional

Row | Structure (SMILES) | growth inhibition (GI) | GI50 (read-out: GI50) | GI50 (read-out: pGI50 (converted))
1 | COc1cc(C2c3cc4c(cc3OC(N3CCCC3)C2C)OCO4)cc(OC)c1OC (stereo unspecified) | Active | – | –
2 | O=C1c2cccnc2-c2nc(-c3ccccn3)cc3c2c1nc1ccccc13 | – | 0.874 µM | 0.875 µM
3 | CC1C(c2ccccc2O)c2cc3c(cc2OC1N1CCCC1)OCO3 (stereo unspecified) | inactive | – | –
4 | Cc1ccc(-c2cc3c4c(nc5ccccc53)C(=O)c3cccnc3-c4n2)cc1 | – | 15 µM | 15 µM

From ChEMBL document CHEMBL4699425, “Active learning effectively identifies a minimal set of maximally informative and asymptotically performant cytotoxic structure-activity patterns in NCI-60 cell lines” (2020)
